The subject of the assay is P388 leukemia ip, CD2F1 mice, survival T/C. Briefly: NCI In Vivo Anticancer Drug Screen. Data for tumor model P388 Leukemia (intraperitoneal) in CD2F1 (CDF1) mice. To be noted: endpoint: median survival time, higher = longer survival. The procedure, abridged:
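Mice carrying the transplanted tumor received test compound or vehicle. Survival was recorded in each group, and the value is the treated-group measurement divided by that of the vehicle-treated control group.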

Where [1] appears, read: dose: 50.0 mg/kg/injection, schedule: Q01DX005 (ip), vehicle: Klucel (hydroxypropylcellulose) (HPC).
[2] abbreviates: dose: 100.0 mg/kg/injection, schedule: Q01DX005 (ip), vehicle: Klucel (hydroxypropylcellulose) (HPC).
The mark [3] stands for this setting: dose: 200.0 mg/kg/injection, schedule: Q01DX005 (ip), vehicle: Klucel (hydroxypropylcellulose) (HPC).
[4] abbreviates: dose: 50.0 mg/kg/injection, schedule: Q01DX009 (ip), vehicle: saline with Tween-80.
The mark [5] stands for this setting: dose: 200.0 mg/kg/injection, schedule: Q04DX003 (ip), vehicle: saline with Tween-80.
Setting [6] is: dose: 60.0 mg/kg/injection, schedule: Q01DX005 (ip), vehicle: saline with Tween-80.
The mark [7] stands for this setting: dose: 120.0 mg/kg/injection, schedule: Q01DX005 (ip), vehicle: saline with Tween-80.
The mark [8] stands for this setting: dose: 240.0 mg/kg/injection, schedule: Q01DX005 (ip), vehicle: saline with Tween-80.
Where [9] appears, read: dose: 100.0 mg/kg/injection, schedule: Q01DX009 (ip), vehicle: saline with Tween-80.
Setting [10] is: dose: 100.0 mg/kg/injection, schedule: Q04DX002 (ip), vehicle: saline with Tween-80.
[11] abbreviates: dose: 200.0 mg/kg/injection, schedule: Q04DX002 (ip), vehicle: saline with Tween-80.
The mark [12] stands for this setting: dose: 50.0 mg/kg/injection, schedule: Q04DX003 (ip), vehicle: saline with Tween-80.

Toxic doses and inconclusive results are not listed. Peptide text beside a SMILES is read from it. * marks the point of attachment. Boc = CC(C)(C)OC(=O)*

With `CSCCC(NC(=O)OC(C)(C)C)C(=O)NC(Cc1ccccc1)C(=O)O` (stereo not drawn) (Boc-Met-Phe-OH; configuration not given here), the T/C is 100 % of control under setting [1], 100 % of control under setting [2] and 106 % of control under setting [3].
For `CCN(CC)CC(C)Nc1ccc([N+](=O)[O-])c2sc3ccccc3c(=O)c12` (configuration not stated), the T/C (dose: 6.25 mg/kg/injection, schedule: Q01DX009 (ip), vehicle: saline) is 113 % of control; the T/C (dose: 12.5 mg/kg/injection, schedule: Q04DX003 (ip), vehicle: saline with Tween-80) is 115 % of control; the T/C (dose: 25.0 mg/kg/injection, schedule: Q04DX003 (ip), vehicle: saline with Tween-80) is 120 % of control; the T/C under setting [4] is 172 % of control; the T/C (dose: 50.0 mg/kg/injection, schedule: Q01DX009 (ip), vehicle: saline) was 186 % of control; the T/C (dose: 132.0 mg/kg/injection, schedule: Q04DX003 (ip), vehicle: saline with Tween-80) was 163 % of control. For the same compound, the T/C under setting [5] is 154 % of control.
In the case of `CCN(CC)CCNc1cc(OC)c(C)c2cccnc12`, the T/C is 104 % of control (dose: 50.0 mg/kg/injection, schedule: Q01DX005 (ip), vehicle: saline) and 109 % of control (dose: 100.0 mg/kg/injection, schedule: Q01DX005 (ip), vehicle: saline).
Turning to `c1ccc2c(c1)[nH]c1c(N3CCOCC3)nnc(N3CCOCC3)c12`, the T/C reads like this: under setting [1], 99 % of control; under setting [6], 103 % of control; under setting [2], 98 % of control; under setting [7], 96 % of control; under setting [3], 98 % of control; under setting [8], 90 % of control.
In the case of `N#CO`, the T/C under setting [9] was 90 % of control.
On to `Cc1cc(C(C)CC(=O)O)c(C)c(C)c1C` (configuration not stated), for which the T/C is, setting by setting: under setting [4], 96 % of control; under setting [9], 93 % of control; (dose: 200.0 mg/kg/injection, schedule: Q01DX009 (ip), vehicle: saline with Tween-80) 108 % of control.
Regarding `Cc1ccc(-n2c(O)c(N=Nc3ccc(Br)cc3)c(=O)n(-c3ccc(Br)cc3)c2=S)cc1`, the T/C was 96 % of control under setting [10]; 99 % of control under setting [11]; 94 % of control (dose: 400.0 mg/kg/injection, schedule: Q04DX002 (ip), vehicle: saline with Tween-80).
For `O=S(=O)(Cc1ccccc1)Oc1ccccc1`, the T/C reads like this: (dose: 100.0 mg/kg/injection, schedule: Q04DX003 (ip), vehicle: Klucel (hydroxypropylcellulose) (HPC)) 109 % of control; (dose: 200.0 mg/kg/injection, schedule: Q04DX003 (ip), vehicle: Klucel (hydroxypropylcellulose) (HPC)) 103 % of control; (dose: 400.0 mg/kg/injection, schedule: Q04DX003 (ip), vehicle: Klucel (hydroxypropylcellulose) (HPC)) 94 % of control.
On to `Cc1cc2nc3c(=O)[nH]c(=O)nc-3n(CC=O)c2cc1C`, for which the T/C (dose: 16.0 mg/kg/injection, schedule: Q01DX009 (ip), vehicle: saline with Tween-80) is 92 % of control; the T/C (dose: 32.0 mg/kg/injection, schedule: Q01DX009 (ip), vehicle: saline with Tween-80) is 91 % of control; the T/C (dose: 64.0 mg/kg/injection, schedule: Q01DX009 (ip), vehicle: saline with Tween-80) was 90 % of control; the T/C (dose: 128.0 mg/kg/injection, schedule: Q01DX009 (ip), vehicle: saline with Tween-80) was 90 % of control; the T/C (dose: 135.0 mg/kg/injection, schedule: Q01DX009 (ip), vehicle: saline with Tween-80) is 104 % of control; the T/C (dose: 180.0 mg/kg/injection, schedule: Q01DX009 (ip), vehicle: saline with Tween-80) was 104 % of control. In addition, the T/C runs as follows: (dose: 240.0 mg/kg/injection, schedule: Q01DX009 (ip), vehicle: saline with Tween-80) 104 % of control; (dose: 256.0 mg/kg/injection, schedule: Q01DX009 (ip), vehicle: saline with Tween-80) 102 % of control; (dose: 320.0 mg/kg/injection, schedule: Q01DX009 (ip), vehicle: saline with Tween-80) 102 % of control.
Take `CCCC(=O)C#C[Si](C)(C)C`: the T/C is, setting by setting: (dose: 50.0 mg/kg/injection, schedule: Q01DX005 (ip), vehicle: saline with Tween-80) 103 % of control; (dose: 100.0 mg/kg/injection, schedule: Q01DX005 (ip), vehicle: saline with Tween-80) 103 % of control.
With `CCOC(=O)NC(=S)Nc1ncn[nH]1`, the T/C runs as follows: under setting [12], 100 % of control; (dose: 100.0 mg/kg/injection, schedule: Q04DX003 (ip), vehicle: saline with Tween-80) 95 % of control; under setting [5], 100 % of control; (dose: 400.0 mg/kg/injection, schedule: Q04DX003 (ip), vehicle: saline with Tween-80) 99 % of control.
Regarding `C/C=C1\C(=O)OC23C=CC4C(C(=O)OC)C(O)OC(OC12)C43` (configuration not stated), the T/C was 89 % of control (dose: 0.12 mg/kg/injection, schedule: Q01DX009 (ip), vehicle: saline); 100 % of control (dose: 0.25 mg/kg/injection, schedule: Q01DX009 (ip), vehicle: Klucel (hydroxypropylcellulose) (HPC)); 104 % of control (dose: 0.25 mg/kg/injection, schedule: Q01DX009 (ip), vehicle: saline); 99 % of control (dose: 0.5 mg/kg/injection, schedule: Q01DX009 (ip), vehicle: Klucel (hydroxypropylcellulose) (HPC)); 106 % of control (dose: 0.5 mg/kg/injection, schedule: Q01DX009 (ip), vehicle: saline); 98 % of control (dose: 1.0 mg/kg/injection, schedule: Q01DX009 (ip), vehicle: Klucel (hydroxypropylcellulose) (HPC)). Besides, the T/C was 106 % of control (dose: 1.0 mg/kg/injection, schedule: Q01DX009 (ip), vehicle: saline with Tween-80); 101 % of control (dose: 1.0 mg/kg/injection, schedule: Q01DX009 (ip), vehicle: saline); 98 % of control (dose: 2.0 mg/kg/injection, schedule: Q01DX009 (ip), vehicle: Klucel (hydroxypropylcellulose) (HPC)); 110 % of control (dose: 2.0 mg/kg/injection, schedule: Q01DX009 (ip), vehicle: saline with Tween-80); 107 % of control (dose: 4.0 mg/kg/injection, schedule: Q01DX009 (ip), vehicle: saline with Tween-80).
`COC(=O)C1=COC(C)[C@H]2CN3CCc4c([nH]c5cc(OC)ccc45)C3CC12` (some centres not stated): the T/C is 92 % of control (dose: 15.0 mg/kg/injection, schedule: Q01DX005 (ip), vehicle: saline with Tween-80); 91 % of control (dose: 30.0 mg/kg/injection, schedule: Q01DX005 (ip), vehicle: saline with Tween-80); 88 % of control under setting [6].
With `CCCN(CCC)C(C)C(O)c1cc2c(c3ccccc13)CCCC2` (configuration not stated), the T/C (dose: 100.0 mg/kg/injection, schedule: Q01DX009 (ip), vehicle: Klucel (hydroxypropylcellulose) (HPC)) is 109 % of control and the T/C (dose: 200.0 mg/kg/injection, schedule: Q01DX009 (ip), vehicle: Klucel (hydroxypropylcellulose) (HPC)) is 93 % of control.
In the case of `[Ni+2].[O-]/C(=N\N=C/c1ccco1)c1ccccc1O.[O-]/C(=N\N=C/c1ccco1)c1ccccc1O`, the T/C is 86 % of control (dose: 50.0 mg/kg/injection, schedule: Q04DX002 (ip), vehicle: saline with Tween-80); 93 % of control under setting [10]; 93 % of control under setting [11].
For `CS(=O)CCC1C(=O)OC(C(C)(C)C)N1C(=O)c1ccccc1` (configuration not stated), the T/C was 101 % of control under setting [6], 100 % of control under setting [7] and 105 % of control under setting [8].
On to `CCNC(=O)/N=c1/sc([N+](=O)[O-])cn1CC(=O)N(C)C(=O)OCC`, for which the T/C (dose: 25.0 mg/kg/injection, schedule: Q01DX001 (ip), vehicle: saline) was 100 % of control; the T/C (dose: 50.0 mg/kg/injection, schedule: Q01DX001 (ip), vehicle: saline) is 98 % of control; the T/C (dose: 100.0 mg/kg/injection, schedule: Q01DX001 (ip), vehicle: saline) is 100 % of control.
As to `CCCCn1cnc2c(SC)ncnc21`, the T/C was 110 % of control (dose: 22.0 mg/kg/injection, schedule: Q04DX003 (ip), vehicle: saline with Tween-80); 110 % of control (dose: 33.0 mg/kg/injection, schedule: Q04DX003 (ip), vehicle: saline with Tween-80); 115 % of control under setting [12]; 110 % of control (dose: 75.0 mg/kg/injection, schedule: Q04DX003 (ip), vehicle: saline with Tween-80).

These data come from PubChem BioAssay AID330 (DTP/NCI, 2004).
